Reference: patent EP0665834B1, “QUINOLONE AND ACRIDINONE DERIVATIVES FOR THE TREATMENT OF URINARY INCONTINENCE” (AstraZeneca AB, priority 1992, dated 1994)

Tests used:
urinary incontinence = conditions: preliminary clinical trial; Nurse et al, British Journal of Urology (1991); cited from earlier work
[1] = tested on: guinea pig detrusor strips; assay: second in vitro test: guinea pig detrusor strips contracted with 80 mM KCl; format: cell-based; conditions: for potency in the second test (80 mM KCl) compared with the first test (15 mM KCl): guinea pig detrusor strips
Procedure: This second in vitro test is similar to the one described above with regard to tissue preparation and data acquisition. However, the following exceptions are noted. In this second test, the contraction of the detrusor strips during priming and after the equilibration period is achieved with 80 mM instead of 15 mM KCl (total concentration in the bath).
Typical calcium channel blockers like nifedipine, nimodipine, isradipine, and verapamil are able to relax and reduce the myogenic activity of guinea pig detrusor strips in both tests by virtue of their blocking action on calcium channels.

[2] = tested on: guinea pig detrusor strips; assay: in vitro relaxation of guinea pig bladder detrusor strips contracted with 15 mM KCl (first test); format: cell-based, albino Hartley guinea pigs; conditions: for IC50: Cavia porcellus, 15 mM KCl; for potency: in vitro, in words only
Source text: The actions of compounds of formula I as smooth muscle relaxants useful as therapeutic agents for the treatment of urinary incontinence through their action to open potassium channels and hyperpolarize the membrane potential in the bladder detrusor smooth muscle can be shown using suitably designed in vitro tests, such as the one described following. […] "IC50" is a well understood term and means the concentration of test compound which causes a 50% decrease in the in vitro contraction of the bladder tissue described in the following test.
Hale albino Hartley guinea pigs (450-500g) are sacrificed by carbon dioxide induced asphyxiation and quickly exsanguinated. The lower abdominal cavity is opened and the urinary bladder isolated. The bladder is cleaned of surrounding connective and adipose tissue, and the portion above the ureteral orifices is removed and washed in Krebs-Henseleit buffer solution of the following composition (in mH): NaCl 118.0, KCl 4.7, […] 1.2, KH2PO4 1.2, CaCl2 2.5, NaHCO3 25.0 and d-glucose 11.1. The solution is warmed to 37°C and gassed with 95% O2 and 5% CO2. With vigorous bubbling, the solution should have a pH value close to 7.4.
The dome of the washed bladder is cut off and discarded; the remaining bladder is placed on a gauze in a Petri dish containing the buffer solution. A mid-ventral longitudinal cut is made with scissors to open the bladder. The strips cut from the dome and the base edge are discarded. The remaining detrusor mid-section is cut into two horizontal strips with an approximate width of 2.0 mm. These two strips are further bisected at the mid-dorsal section, creating four strip of similar dimensions. Each strip thus contains both dorsal and ventral portions of the bladder.
The two ends of each individual strip are tied to a glass support rod and a force-displacement transducer (Grass model FR03), respectively, with 4-0 black braided silk suture.
The transducers are connected to a polygraph (Grass model 7E), which is calibrated at 5 mV/cm and the calibration checked for linearity with weights of 5 and 0.5 grams. The analog electrical output signals from the polygraph are digitized by a Modular Instrument Hicro 5000 signal processing system using Biowindow Data Acquisition Software, which is run under the Hicrosoft OS/2 operating system with an IBM-compatible PC.
The detrusor strips on the glass rod are secured in 20 ml tissue baths and allowed to equilibrate under a preload tension of 2 grams. […]
When the tissue relaxes to a steady state after the final washing, 15 mH KCl is again applied. […] The effect of the compound at each dose is expressed as % of the maximum inhibitory response, which is further normalized with respect to the corresponding effect of the compound vehicle control. […]

[3] = chemical stability (no method given); format: physicochemical; conditions: in words; compared with corresponding compounds wherein R^2 is methyl
bladder = assay: in vivo oral test in catheterized rats: bladder contraction interval, blood pressure, heart rate; parameters: species or system Male Wistar rats; conditions: dosed orally at 3 mg/kg body weight
Procedure: The compound described in Example 1 is active and selective in this test when dosed orally at 3 mg/kg body weight.
Male Wistar rats (400 - 500 g) were anesthetized with 50 mg/kg Nembutal, i.p. For each rat, the abdominal region and the front and back of the neck were shaved and povidone-iodine was applied to the skin. For carotid catheterization, the left carotid artery was exposed via a small ventral cervical incision. The exposed area was flushed with a 2% lidocaine HCl solution to relax the vessel. The catheter, filled with 0.9% saline, was introduced approximately 2.4 cm into the artery so that its tip resided in the aortic arch. The distal end of the catheter was exteriorized at the nape of the neck, filled with heparin (1000 units/ml) and heat sealed. […]
The rats were weighed, orally sham-dosed (dosing needle introduced, but no fluid expelled), and transvesical saline infusion (.18 ml/min) was begun and continued throughout the experiment. Variations in blood pressure, heart rate, intravesical pressure and urine output were recorded on either a Grass Polygraph or a Gould TA4000 recording system. […] At this point, a basal level of each experimental parameter was recorded and the rats were administered by oral gavage the appropriate dose of compound (in a 75% PEG 400 - saline vehicle) in concentrations such that the volume was 1 ml/kg body weight. […]

intestinal smooth muscle = conditions: Vitolinya et al, 1981; cited from earlier work
cardiovascular system = conditions: Vitolinya et al, 1981; cited from earlier work

CC1(C)Oc2ccc(C#N)cc2C(N2CCCC2=O)C1O (centres unmarked) [cromakalim]
efficacy in treatment of urinary incontinence (urinary incontinence): effective | relaxant activity ([1]; 80 mM KCl, at concentrations as high as 30 µM): insignificant relaxant activity | IC50 ([2]; relaxant activity in the first test): 0.6 to 0.9 µM

COC(=O)C1=C(C)NC(C)=C(C(=O)OC(C)C)C1c1cccc2nonc12 (centres unmarked) [isradipine]
potency in the second test (80 mM KCl) compared with the first test (15 mM KCl) [1]: more potent in the second test

COc1ccc(CCN(C)CCCC(C#N)(c2ccc(OC)c(OC)c2)C(C)C)cc1OC (centres unmarked) [verapamil]
potency in the second test (80 mM KCl) compared with the first test (15 mM KCl) [1]: more potent in the second test

N#Cc1cccc(C2C=C(C(F)(F)F)NC3=C2C(=O)CCC3)c1 (centres unmarked) [Example 39, 2-Trifluoromethyl-4-(3-cyanophenyl)-4,6,7,8-tetrahydro-5(1H)-quinolone]
chemical stability [3]: superior | potency [2]: surprisingly good potency in vitro

O=C1CCCC2=C1C(c1cccc([N+](=O)[O-])c1)C=C(C(F)(F)F)N2 (centres unmarked) [Example 15, 2-Trifluoromethyl-4-(3-nitrophenyl)-4,6,7,8-tetrahydro-5(1H)quinolone]
chemical stability [3]: superior | potency [2]: surprisingly good potency in vitro

CC1=CC(c2cccc([N+](=O)[O-])c2)C2=C(CCCC2=O)N1 (centres unmarked) [Example 1, 2-Methyl-4-(3-nitrophenyl)-4,6,7,8-tetrahydro-5(1H)-quinolone]
activity (bladder): active

CC1=CC(c2ccc(C(F)(F)F)cc2)C2=C(CCCC2=O)N1 (centres unmarked) [Example 9, 2-Methyl-4-(4-trifluoromethylphenyl)-4,6,7,8-tetrahydro-5(1H)-quinolone]
IC50 ([2]; concentration causing 50% decrease in in vitro contraction of bladder tissue): 8.11 µM

COc1ccc(Cc2nccc3cc(OC)c(OC)cc23)cc1OC [papaverine]
effect on sustained tension after high KCl stimulation ([1]; 80 mM KCl, 300 µM): totally abolished

CC1=C(C#N)C(c2ccccc2)C2=C(CC(C)(C)CC2=O)N1 (centres unmarked) [3-Cyano-4-phenyl-2,7,7-trimethyl-4,6,7,8-tetrahydro-5(1H)-quinolone]
blocking of spasmogenic effect of acetylcholine and barium chloride (intestinal smooth muscle): capable of blocking the spasmogenic effect | hypotensive properties (cardiovascular system): hypotensive properties
